Data on 3 compounds can be found in patent US20190307818A1, “NOVEL ANTIMICROBIAL COMPOSITIONS AND METHODS OF USE” (priority 2016, published 2019).

Test [1] has as its system P. aeruginosa PA14 ΔlasI ΔrhII CRISPR adaptation. The test is described as follows: CRISPR adaptation (new spacer integration by PCR). The class given is cell-based. The following applies: ΔlasI ΔrhII strain; AIs 2 μM 3-O—C12-HSL+10 μM C4-HSL given together; Baicalein 100 μM with AIs; vs DMSO. The method, then: FIG. 3. QS inhibitors block CRISPR adaptation and disable QS-mediated bacterial immunity. A P. aeruginosa PA14 ΔlasI ΔrhII QS deficient strain was transformed with foreign DNA (e.g., a CRISPR-targeted plasmid). A single colony from the transformation was re-streaked on selective media containing either DMSO (as a control), AIs (2 μM 3-O—C12-HSL+10 μM C4-HSL), or AIs and a QS inhibitor (2 μM 3-O—C12-HSL+10 μM C4-HSL+100 μM Baicalein). Single colonies were tested for integration of new inserted spacers (conferring immunity) against the CRISPR-targeted plasmid. In particular, PCR primers were designed to amplify specific genomic regions into which spacers were inserted. Primers complementary to the region upstream of the CRISPR region and to the second spacer region were designed, and PCR amplification was utilized to test for the presence of the newly inserted spacer (a process referred to as adaptation).
A P. aeruginosa PA14 ΔlasI ΔrhII QS deficient strain was transformed with foreign DNA (e.g., a CRISPR-targeted plasmid such as pCR2SP1, as described above). A single colony from the transformation was re-streaked on selective medium, e.g., LB medium containing 50 μg/ml gentamicin and either DMSO (as a control), AIs (2 μM 3-O—C12-HSL+10 μM C4-HSL), or both AIs and a QS inhibitor (2 μM 3-O—C12-HSL+[…] C4-HSL+100 μM Baicalein QS inhibitor) and incubated at 37° C. O/N. Single colonies were tested for integration of new immunity spacers against the CRISPR-targeted plasmid by PCR using iProof High-Fidelity DNA Polymerase (Bio-Rad) and primers CR2SP check F+R upstream of the CRISPR2 region and in the second spacer. Thus, PCR primers were designed to amplify the genomic region in which the new spacer was present. Primers targeting a sequence upstream of the CRISPR-Cas region and targeting the second spacer region were designed, and PCR amplification was utilized to test for the presence of the new inserted spacer (a portion of the plasmid sequence inserted between the CRISPR locus and spacers). […]

Another test concerns cas3. The test is described as follows: cas3 expression by qRT-PCR. The format is cell-based, Pseudomonas aeruginosa PA14. The following applies: ΔlasI ΔrhII mutant; 100 μM 3-O—C12-HSL and 100 μM C4-HSL given together; normalized to 5S ribosomal RNA. The method, then: In one example protocol, P. aeruginosa PA14 and mutants were grown overnight at 37° C. with shaking in LB broth. Cultures were back diluted 1:100 and grown to the indicated OD600 in the presence or absence of DMSO, 3-O—C12-HSL, C4—HSL (Sigma) or Baicalein (Cayman Chemical) at the specified concentrations. LB was supplemented with 50 μg/ml Gentamicin where appropriate.
For Quantitative Real Time-PCR (qRT-PCR), bacteria were harvested at the indicated OD600. RNA was purified using Trizol (Ambion), DNAse treated using DNA-free (Ambion), cDNA was synthesized using SuperScript® III Reverse Transcriptase (Invitrogen) and quantified using PerfeCTa® SYBR® Green FastMix®, Low ROX (Quanta Biociences).
Quantitative Real Time-PCR (qRT-PCR) was utilized to determine the relative expression of cas3 in each of these mutant strains. Additionally, 100 μM 3-O—C12-HSL and 100 μM C4-HSL, which are AIs that rescue cas3 expression, were added to the cell culture comprising the mutant strain ΔlasI ΔrhII. It is understood that other concentrations of 3-O—C12-HSL and C4—HSL are also suitable, e.g., the concentrations may be in the range of 2 μM to 100 μM, from 10 μM to 100 μM or from 2 μM to 10 μM. In some embodiments, 2 μM of 3-O—C12-HSL and 10 μM of C4-HSL were used. The expression profiles for cas3 for each strain were then normalized based on expression of 5S ribosomal RNA. […]

For the next test, the system named is CRISPR-Cas system. The test is described as follows: Transformation assay, efficiency of transformation (EOT). The following applies: ΔlasI ΔrhII mutant; both AIs added together. The format is cell-based, P. aeruginosa PA14. The method, then:
Bacteria were grown to the appropriate OD600, washed twice at RT in 300 mM sucrose, and electroporated with 1 μg empty vector plasmid pHERD30T or pCR2SP1 containing a phage-derived sequence specifically targeted for degradation by CRISPR-Cas (Bondy-Denomy, Pawluk et al. 2013). 1 ml LB was added and the bacteria were grown 1 h at 37° C. with shaking, after which they were plated on selective medium, e.g., LB medium containing 50 μg/ml gentamicin, and incubated overnight at 37° C. Bacterial colonies were counted using Image Quant Las 4000 and Image Quant TL software (GE Healthcare). Colony forming units (CFU)/ml were quantified and the efficiency of transformation was calculated as the percentage of colonies transformed by pCR2SP1 compared to those transformed by the empty vector control pHERD30T.
This assay utilizes a plasmid as a proxy for a phage, to quantify the frequency with which a foreign genetic material is identified and targeted for degradation by the host bacterial immune system. For bacterial cells having a functional CRISPR-Cas system, the plasmid will be targeted for destruction, and no colonies will grow on the plate, as antibiotic resistance has been lost.
For cells lacking a CRISPR-Cas system or having an impaired or partially functioning CRISPR-Cas system, the electroporated plasmid evades destruction by the bacterial host and is able to replicate. […]

In test [2] the test system is Wild-type P. aeruginosa pyocyanin production. The following applies: previously shown; cited from earlier work.

As to `CCCCCCCCCC(=O)CC(=O)N[C@H]1CCOC1=O` [3-O—C12-HSL], in test [1], the “CRISPR adaptation (fraction of cells in the colony that adapted)” value is reported as “increased the fraction of cells in the colony that adapted”. Also, the cas3 expression result in the test with cas3 is reported as “restore cas3 expression to WT levels”. Also, the “immune activity (efficiency of transformation)” value with CRISPR-Cas system is listed as “restored immune activity to nearly WT levels”.

Consider `CCCC(=O)N[C@H]1CCOC1=O` [Molecule C4-HSL, N-butyryl-L-homoserine lactone], for which the “CRISPR adaptation (fraction of cells in the colony that adapted)” value in test [1] is on record as “increased the fraction of cells in the colony that adapted”. Moreover, the cas3 expression entry in the test on cas3 was “restore cas3 expression to WT levels”. The “immune activity (efficiency of transformation)” value with CRISPR-Cas system was “restored immune activity to nearly WT levels”.

For the compound meta-bromothiolactone [mBTL], the pyocyanin production entry in test [2] is recorded as “inhibit pyocyanin production”.
